In one experiment the test system is Glioblastoma cells. In words: Influence on the cell cycle, continuous flow cytometry, glioblastoma cells. In kind it is cell-based. To be noted: 20 nM, 48 h incubation. As for the experimental part: (§1) Glioblastoma cells and HepG2 cells (liver carcinoma cells) were in each case incubated for 48 h without the substance 1 according to the invention and in nutrient medium containing various concentrations of the substance 1 according to the invention. The cells were harvested and measured by continuous flow cytometry.
(§2) Bookmark not defined. to […]. for glioblastoma cells and […]. to […]. for HepG2 cells, in each case in plot form. In each case the DNA content is indicated on the X axis and the cell count is indicated on the Y axis. Bookmark not defined. to […]. were obtained in each case with 0 nM, 10 nM and 20 nM, respectively, of the preferred substance 1 according to the invention in the culture medium; the results shown in Figures […]. to […]. were obtained with 0 nM, 2 nM and 5 nM, respectively, of the preferred substance 1 according to the invention in the culture medium.
(§3) It can be seen that for both cell lines tested the absolute number and the number of cells in the S and in the G2 phase decreases with increasing concentration of substance 1. […] The preferred substance 1 according to the invention thus arrests the cell cycle in the G1 phase at the dosage suitable for the particular cell type.
(In general: A flow cytometer gives signals particle by particle.)

The test system of experiment [1] is glioblastoma cells growing on a conventional carrier. In words: Shape and carrier adhesion of glioblastoma cells. It is filed as cell-based. To be noted: 50 nM. From the text:
In addition, the shape of glioblastoma cells growing on a conventional carrier as a function of the concentration of the substance 1 according to the invention was investigated (no figure). In the absence of substance 1 the cells have their typical dendritic shape and adhere to (sic) the carrier surface.

Experiment [2] has as its system HepG2 cells (liver carcinoma cells). In words: Influence on the cell cycle, continuous flow cytometry, HepG2 cells. It is filed as cell-based. To be noted: 5 nM, 48 h incubation. On the procedure:
as §1, §2, §3

A further experiment relates to HepG2 (liver carcinoma). In words: cells. To be noted: for TGI: complete inhibition of cell growth; for CC50 / GI50 / inhibition at 0.5 µg/mL: Homo sapiens; for CC50: read-out: LC50; for inhibition at 0.5 µg/mL: HEP-G2, at 500 ng/ml, read-out: growth inhibition. In kind it is cell-based. As for the experimental part:
(§4) The tables below show the influence of the substances 1, 36 and 37 according to the invention on the growth of tumor cells, specifically the growth of the cell lines HM02 (gastroadenocarcinoma), HepG2 (liver carcinoma) and MCF 7 (mammary carcinoma).
(§5) The studies were carried out in accordance with the NCI guidelines (Grever et al., Seminars in Oncology 19 (1992), 622-638). The cells were cultured in 96-well microtitre plates in RPMI 1640 medium with 10% FCS (foetal calf serum). 24 h after dissemination of the cells, the substances 1 and 36 according to the invention dissolved in methanol were added and the cells were incubated for a further 48 h. The cell count was then determined.
(§6) GI50: denotes the concentration that effects a semi-maximum inhibition of the cell growth
(§7) TGI: denotes the concentration that effects complete inhibition of the cell growth

Experiment [3] concerns HM02 (gastroadenocarcinoma). The experiment is described as follows: cells. In kind it is cell-based. To be noted: for CC50: read-out: LC50; for TGI: complete inhibition of cell growth. As for the experimental part: as §4, §5, §6, §7
For experiment [4], the system named is MCF 7 (mammary carcinoma). In words: cells. It is filed as cell-based. To be noted: for CC50 / GI50: Homo sapiens; for CC50: read-out: LC50; for TGI: complete inhibition of cell growth. On the procedure:
as §4, §5, §6, §7

The test system of another experiment is HeLa cells (KB3.1). To be noted: cited from earlier work.
The mark [5] stands for this setting: MCF7, MCF 7, 48 h incubation, semi-maximum inhibition of cell growth, read-out: GI50.

The values that follow come from US20040092581A1, “Ratjadone derivatives for inhibiting cell growth” (priority 2001, published 2004).

Converted amounts (≈) assume the structure as drawn. Read-outs that look alike come from different tables or passages of the source. Marks after values point to notes of the source that are not given here. A value given as a limit tells only on which side of the number the result lay.

By TGI is commonly meant the concentration giving total growth inhibition. Lower therefore signals more potent growth arrest. As usually defined, the GI50 is the concentration at which growth is held to half of that of the control. In general, inhibition refers to the change of the read-out against control, counted positive when it falls. With `C/C=C/[C@H]1O[C@@H]([C@@H](O)/C=C/C=C(\C)C[C@@H](C)/C=C(C)\C=C\[C@H]2CC=CC(=O)O2)C[C@H](O)[C@H]1C` [Substance 1], the “cell cycle phase distribution (G1 arrest)” value (with Glioblastoma cells; in experiment [2]) was “virtually all cells tested are in the G1 phase” each time. In addition, in experiment [1], the “cell shape and adhesion to the carrier surface” value was “the cells have largely lost their dendritic shape and detach easily from the carrier surface”. For the same molecule, the TGI is 500^b ng/ml with HepG2 (liver carcinoma) (HEP-G2, 48 h incubation); 24 ng/mL (≈ 0.0526 µM) in experiment [3] (HM02, 48 h incubation); >500^b ng/ml in experiment [4] (MCF 7, 48 h incubation). The CC50 with HepG2 (liver carcinoma) (HepG2, 48 h) was greater than 500 ng/mL; in experiment [3] (HM02, 48 h), 250 ng/mL (≈ 0.547 µM); in experiment [4] (MCF7, 48 h), less than 500 ng/mL. Moreover, the 50% growth inhibitory concentration (GI50) in the experiment with HepG2 (liver carcinoma) (HepG2, HEP-G2, 48 h incubation, semi-maximum inhibition of cell growth, read-out: GI50) is 13 ng/mL (≈ 0.0285 µM); in experiment [3] (HM02, 48 h incubation, semi-maximum inhibition of cell growth, read-out: GI50) it was less than 5 ng/mL; in experiment [4] (setting [5]) it was 16 ng/mL (≈ 0.035 µM). In the experiment with HepG2 (liver carcinoma) (HepG2), the inhibition at 0.5 µg/mL was 80%.

Consider `C/C=C/[C@@H]1O[C@H]([C@H](O)/C=C/C=C(\C)C[C@@H](C)/C=C(C)\C=C\[C@H]2CC=CC(=O)O2)C[C@@H](O)[C@@H]1C` [Ratjadon, ratjadon], for which the “IC50, inhibition of growth of HeLa cells (KB3.1)” value in the experiment on HeLa cells (KB3.1) was 0.05 ng/mL.

For `C/C=C/[C@H]1O[C@@H]([C@@H](O)/C=C/C=C(\C)C[C@@H](C)/C=C(C)\C=C\[C@@H]2CC=CC(=O)O2)C[C@H](O)[C@H]1C` [Substance 37], the concentration for total growth inhibition (TGI) was greater than 100 ng/mL in the experiment with HepG2 (liver carcinoma) (HEP-G2, 48 h incubation); >100^a ng/ml in experiment [3] (HM02, 48 h incubation); greater than 100 ng/mL in experiment [4] (MCF 7, 48 h incubation). Moreover, the GI50 was 85 ng/mL (≈ 0.186 µM) in the experiment on HepG2 (liver carcinoma) (HepG2, 48 h); 17 ng/mL (≈ 0.0372 µM) in experiment [3] (HM02, 48 h); 25 ng/mL (≈ 0.0547 µM) in experiment [4] (setting [5]). Besides, the CC50 with HepG2 (liver carcinoma) (HepG2, 48 h) is greater than 100 ng/mL; in experiment [3] (HM02, 48 h), greater than 100 ng/mL; in experiment [4] (MCF7, 48 h), greater than 100 ng/mL. Besides, the inhibition at 0.1 µg/mL in experiment [3] (HM02, read-out: growth inhibition) amounted to 90%.

Regarding `CC(=C/[C@H](C)C/C(C)=C/C=C/[C@H](O)[C@H]1CCCCO1)/C=C/[C@H]1CC=CC(=O)O1` [Substance 36], the TGI with HepG2 (liver carcinoma) (HEP-G2, 48 h incubation) is >500^c ng/ml; in experiment [3] (HM02, 48 h incubation), 140 ng/mL (≈ 0.362 µM); in experiment [4] (MCF 7, 48 h incubation), >500^c ng/ml. Also, the concentration for 50% growth inhibition (GI50) is 58 ng/mL (≈ 0.15 µM) in the experiment with HepG2 (liver carcinoma) (HepG2, 48 h); 5 ng/mL (≈ 0.0129 µM) in experiment [3] (HM02, 48 h); 100 ng/mL (≈ 0.259 µM) in experiment [4] (MCF7, 48 h). The CC50 in the experiment on HepG2 (liver carcinoma) (HepG2, 48 h) was greater than 500 ng/mL; in experiment [3] (HM02, 48 h) it was greater than 500 ng/mL; in experiment [4] (MCF7, 48 h) it was greater than 500 ng/mL. In addition, the inhibition at 0.5 µg/mL with HepG2 (liver carcinoma) (HepG2) was found to be 60%.
